Assay results taken from ChEMBL document CHEMBL4033775, “Natural-Products-Inspired Use of the gem-Dimethyl Group in Medicinal Chemistry” (J Med Chem, 2018).
≈ marks a conversion by molar mass, not a printed value.

Assays:
[1] = molecular target: Matrix metalloproteinase-9 (Homo sapiens, UniProt P14780); assay: Inhibition of MMP9 (unknown origin) expressed in Escherichia coli BL21(DE3) using Mca-Pro-Leu-Gly-Leu-Dpa-Ala-Arg-NH2 as substrate after 20 to 30 mins by spectrofluorimetric analysis
Collagenase 3 = Collagenase 3 (Homo sapiens, UniProt P45452); assay: Inhibition of MMP13 (unknown origin) expressed in Escherichia coli BL21(DE3) using Mca-Pro-Leu-Gly-Leu-Dpa-Ala-Arg-NH2 as substrate after 20 to 30 mins by spectrofluorimetric analysis
Matrilysin = molecular target: T1, Matrilysin (Homo sapiens, UniProt P09237); assay: Inhibition of MMP7 (unknown origin) expressed in Escherichia coli BL21(DE3) using Mca-Pro-Leu-Gly-Leu-Dpa-Ala-Arg-NH2 as substrate after 20 to 30 mins by spectrofluorimetric analysis
T1 sequence (P09237 whole entry): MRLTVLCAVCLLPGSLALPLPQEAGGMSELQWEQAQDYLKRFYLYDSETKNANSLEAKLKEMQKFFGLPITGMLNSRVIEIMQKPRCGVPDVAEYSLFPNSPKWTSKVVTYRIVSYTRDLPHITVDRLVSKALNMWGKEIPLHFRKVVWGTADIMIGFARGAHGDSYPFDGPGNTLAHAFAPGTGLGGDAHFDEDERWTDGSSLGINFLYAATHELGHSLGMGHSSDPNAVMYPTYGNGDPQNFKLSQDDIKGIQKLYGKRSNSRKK

Interstitial collagenase = Interstitial collagenase (Homo sapiens, UniProt P03956); assay: Inhibition of human interstitial recombinant N-terminal MMP1 expressed in Escherichia coli BL21(DE3) using Mca-Pro-Leu-Gly-Leu-Dpa-Ala-Arg-NH2 as substrate after 20 to 30 mins by spectrofluorimetric analysis
[2] = molecular target: 72 kDa type IV collagenase (Homo sapiens, UniProt P08253); assay: Inhibition of MMP2 (unknown origin) expressed in Escherichia coli BL21(DE3) using Mca-Pro-Leu-Gly-Leu-Dpa-Ala-Arg-NH2 as substrate after 20 to 30 mins by spectrofluorimetric analysis
[3] = Aqueous solubility of the compound at physiological pH; format: physicochemical; conditions: buffer

Matrix metalloproteinase-9, sequence (P14780 whole entry): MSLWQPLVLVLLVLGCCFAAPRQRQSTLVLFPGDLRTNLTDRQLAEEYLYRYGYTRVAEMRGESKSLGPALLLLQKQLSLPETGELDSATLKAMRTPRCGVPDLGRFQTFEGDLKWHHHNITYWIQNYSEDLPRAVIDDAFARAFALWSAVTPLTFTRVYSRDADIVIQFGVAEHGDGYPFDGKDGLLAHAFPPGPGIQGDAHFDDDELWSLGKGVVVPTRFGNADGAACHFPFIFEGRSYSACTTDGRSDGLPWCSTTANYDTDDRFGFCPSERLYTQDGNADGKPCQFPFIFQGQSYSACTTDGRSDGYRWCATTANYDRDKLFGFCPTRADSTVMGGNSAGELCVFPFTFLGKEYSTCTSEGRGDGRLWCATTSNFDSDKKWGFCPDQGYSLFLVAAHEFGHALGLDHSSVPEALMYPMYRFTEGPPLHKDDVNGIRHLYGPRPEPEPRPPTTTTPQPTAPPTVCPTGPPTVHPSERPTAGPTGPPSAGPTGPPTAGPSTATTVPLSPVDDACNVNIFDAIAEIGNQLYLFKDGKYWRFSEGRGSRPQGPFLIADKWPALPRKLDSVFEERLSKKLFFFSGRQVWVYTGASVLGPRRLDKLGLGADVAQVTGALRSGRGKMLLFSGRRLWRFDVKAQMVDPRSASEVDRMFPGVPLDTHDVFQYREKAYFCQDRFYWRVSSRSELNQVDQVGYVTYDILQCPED
72 kDa type IV collagenase, sequence (P08253 whole entry): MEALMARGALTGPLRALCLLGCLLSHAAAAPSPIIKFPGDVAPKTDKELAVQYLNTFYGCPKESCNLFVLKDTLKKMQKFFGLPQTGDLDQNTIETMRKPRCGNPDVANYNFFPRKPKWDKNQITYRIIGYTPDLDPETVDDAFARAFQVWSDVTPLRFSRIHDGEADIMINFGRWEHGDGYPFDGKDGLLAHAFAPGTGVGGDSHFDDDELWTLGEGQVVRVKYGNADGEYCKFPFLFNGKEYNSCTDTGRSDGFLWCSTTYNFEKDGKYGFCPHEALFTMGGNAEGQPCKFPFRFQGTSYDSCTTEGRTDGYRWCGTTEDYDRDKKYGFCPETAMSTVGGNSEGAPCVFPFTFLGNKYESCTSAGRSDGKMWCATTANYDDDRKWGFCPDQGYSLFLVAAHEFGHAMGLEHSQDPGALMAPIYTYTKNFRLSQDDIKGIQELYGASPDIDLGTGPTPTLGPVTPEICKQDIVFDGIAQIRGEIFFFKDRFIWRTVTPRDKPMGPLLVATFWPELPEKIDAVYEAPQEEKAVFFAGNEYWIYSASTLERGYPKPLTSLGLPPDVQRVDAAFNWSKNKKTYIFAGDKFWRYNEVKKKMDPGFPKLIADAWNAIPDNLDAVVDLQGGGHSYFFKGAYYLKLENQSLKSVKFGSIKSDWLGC
Interstitial collagenase, sequence (P03956 whole entry): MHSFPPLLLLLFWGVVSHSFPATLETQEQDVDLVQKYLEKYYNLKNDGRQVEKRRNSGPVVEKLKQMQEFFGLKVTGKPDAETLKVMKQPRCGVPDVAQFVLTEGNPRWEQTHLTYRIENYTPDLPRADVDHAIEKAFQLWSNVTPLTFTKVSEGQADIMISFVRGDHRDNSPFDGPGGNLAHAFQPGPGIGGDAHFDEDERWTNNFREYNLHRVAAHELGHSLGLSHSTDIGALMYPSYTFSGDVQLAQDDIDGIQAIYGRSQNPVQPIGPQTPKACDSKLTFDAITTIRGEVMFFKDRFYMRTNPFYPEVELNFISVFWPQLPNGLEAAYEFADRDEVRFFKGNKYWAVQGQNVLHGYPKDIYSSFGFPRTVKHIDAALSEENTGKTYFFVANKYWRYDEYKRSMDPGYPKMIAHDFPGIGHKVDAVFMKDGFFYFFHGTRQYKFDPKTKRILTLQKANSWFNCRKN

IC50 [1] | IC50 (Collagenase 3) | IC50 (Matrilysin) | IC50 (Interstitial collagenase) | IC50 [2] | solubility [3] | Compound
0.9 nM | 1 nM | 23 nM | 0.4 nM | 1.4 nM | – | COc1ccc(S(=O)(=O)N2CCSC(C)(C)C2C(=O)NO)cc1 (stereo unspecified)
– | – | – | – | – | 800 µg/mL (≈ 2140 µM) | COc1ccc(S(=O)(=O)N2CCCSC(C)(C)[C@@H]2C(=O)NO)cc1
